Where only a bound is given, the exact number is not on record here.

The subject of one series is SK-BR-3. Description: MTT cell viability assay in SK-BR-3 cells. It counts as cell-based. Conditions: Homo sapiens, read-out: IC50 values of cell death. A general note: Formazan colour is commonly taken as a measure of viable cells.
The subject of series [1] is γ-Syn. Description: γ-Syn protein expression in selected γ-Syn expressing cells. To be noted: 48 h. It counts as cell-based. From the text: Cells were selected that expressed γ-Syn. […] We next measured cell death by MTT assays and found a direct correlation between loss of γ-Syn protein expression and cell death.
Another series relates to HeLa. Put plainly: MTT cell viability assay in HeLa cells. It counts as cell-based. Conditions: Homo sapiens, read-out: IC50 values of cell death.
In a further series the test system is HCT 116. Description: MTT cell viability assay in HCT 116 cells. It counts as cell-based. To be noted: Homo sapiens, read-out: IC50 values of cell death.
The test system of another series is PC cells. The class given is cell-based. To be noted: DMI at clinically relevant concentrations.
For another series, the system named is T47D cells. Description: MTT cell viability assay in T47D breast cancer cells.
The next series deals with HT-29. Put plainly: MTT cell viability assay in HT-29 cells. The class given is cell-based. Conditions: Homo sapiens, read-out: IC50 values of cell death.
Another series deals with BxPC-3. Description: MTT cell viability assay in BxPC-3 pancreatic cancer cells. It counts as cell-based. Conditions: Homo sapiens; BxPC-3 cells; read-out: IC50 values of cell death.
The subject of series [2] is γ-Syn. Put plainly: γ-Syn expression in pancreatic cancer (PC) cells. The class given is cell-based. To be noted: clinically relevant concentrations.
Series [3] has as its system γ-Syn. Put plainly: Western blot of γ-Syn protein in brain of WKY rats. It counts as in vivo, rat. Conditions: brains of WKY rats, FIG. 3. From the text:
In brain, γ-Syn is expressed in presynaptic terminals of monoaminergic neurons, and our lab has shown that this protein can regulate the function of norepinephrine and serotonin transporters. Unlike α-Syn, whose role in neurodegenerative diseases such as Parkinson's disease is well established, a role for γ-Syn in neurodegeneration is not known. γ-Syn is overexpressed in the frontal cortex of the WKY, a rat model of depression. […] The ability of γ-Syn to bind tightly to MTs may be one mechanism by which its overexpression in carcinomas protects cells from the MT actions of chemotherapeutic agents, for example, taxol, nocodazole, vinblastine and colchicine.

Another series has as its system DU145. Description: MTT cell viability assay in DU145 cells. It counts as cell-based. Conditions: Homo sapiens, DU-145, read-out: IC50 values of cell death.
In series [4] the test system is γ-Syn. To be noted: rat depression model, Jeannotte et al. 2009; cited from earlier work.
In series [5] the test system is cells that did not express any γ-Syn. Put plainly: MTT cell death assay in cells that do not express γ-Syn. The class given is cell-based. To be noted: cells without γ-Syn expression, 50 μM DMI.
Method: Cells were selected that expressed γ-Syn. The selected cells were treated with varying concentrations of DMI (0-50 μM) for 48 h.
The next series relates to ASPC-1. Put plainly: MTT cell viability assay in ASPC-1 pancreatic cancer cells. The class given is cell-based. To be noted: Homo sapiens, ASPC1; ASPC-1 cells; read-out: IC50 values of cell death.
Series [6] has as its system WKY rats. Description: Depression model, behavior of WKY rats. It counts as in vivo, rat. To be noted: for mobility and climbing behaviors: WKY rats, chronic administration, FIG. 1.
Another series relates to MD-MB-231. Put plainly: MTT cell viability assay in MD-MB-231 cells. Conditions: read-out: IC50 values of cell death. The class given is cell-based.
Series [7] relates to γ-Syn. Put plainly: Western blot of γ-Syn levels in T47D cells. It counts as cell-based. Conditions: for decrease of γ-Syn levels: 48 h pretreatment, Western blot. The protocol:
Various cancer cell lines were tested for expression of γ-Syn by Western blots. (FIG. 4) Two breast carcinoma cell lines were tested for γ-Syn expression by Western blots, and human brain (hIFG) was used as a positive control.
For orientation: A western blot detects proteins with antibodies after separation by electrophoresis.

Series [8] concerns cells that expressed γ-Syn. Description: MTT cell death assay in cells that express γ-Syn. The class given is cell-based. From the text: Cells were selected that expressed γ-Syn.
Series [9] has as its system WKY rats. To be noted: rat depression model, Jeannotte et al. 2009; cited from earlier work.
For another series, the system named is A549. Put plainly: MTT cell viability assay in A549 cells. The class given is cell-based. Conditions: Homo sapiens, read-out: IC50 values of cell death.
For the next series, the system named is Colo-357. Put plainly: MTT cell viability assay in Colo-357 pancreatic cancer cells. The class given is cell-based. Conditions: Homo sapiens, COLO357; Colo-357 cells; read-out: IC50 values of cell death.
The mark [10] stands for this setting: T47D cells, 48 h, 25 μM single agent, MTT.

The term IC50 denotes the midpoint of a concentration-inhibition curve. What is called cell viability is a read-out of living cells in per cent, often relative to untreated cells. Lower therefore signals a greater loss of cells. In the case of `CNCCCN1c2ccccc2CCc2ccccc21` [DMI, desipramine], the IC50 with SK-BR-3 was 40 µM; with HeLa, 43 µM; with HCT 116, 43 ± 3 µM; in the series with T47D cells (read-out: IC50 values of cell death, T47D cells) it was 35 µM; with HT-29, 38 µM; in the series with BxPC-3, over 50 µM. Further, the IC50 in the series with DU145, in the series on ASPC-1, in the series on MD-MB-231, in the series on A549 and in the series on Colo-357 was over 50 µM throughout. Further, the “γ-Syn protein expression (in words)” value in the series on γ-Syn [1] (0-50 μM DMI) is reported as “dose-dependent decrease in γ-Syn protein expression”. Also, the “γ-Syn protein expression decreased” value in the series with γ-Syn [1] (50 μM DMI) is reported as over 85%. Further, the cell death in the series with PC cells is reported as over 60%; in series [8] (each compound used alone) it was about 15%; in [8] (γ-Syn expressing cells, 50 μM DMI, MTT), over 90%. Moreover, the cell viability in the series with T47D cells (10 μM of either drug alone) is recorded as about 80%; with T47D cells (setting [10]), 58%; with T47D cells (T47D cells, 48 h, 50 μM DMI alone, MTT (data not shown)), about 5%. Further, the “γ-Syn expression (in words)” value in the series with γ-Syn [2] is reported as “reduce γ-Syn expression”. Also, the “γ-Syn protein levels (Western blot)” value in the series with γ-Syn [3] was “reduced levels of γ-Syn protein”; in the series with γ-Syn [3] (listed as desipramine), “reduced”. In addition, the “expression levels of γ-Syn” value in the series on γ-Syn [4] is recorded as “reduces expression levels of γ-Syn”. The “cell death (in words)” value in series [5] was “no cell death”. Further, the depressive symptoms result with WKY rats [6] (WKY rat, chronic treatment for 2 weeks) is listed as “relief in the depressive symptoms”. Also, in the series on WKY rats [6], the “mobility and climbing behaviors” value is “improvements in mobility and climbing behaviors”. Also, the “γ-Syn levels (in words)” value in the series on γ-Syn [7] (10 μM and 50 μM) is listed as “reduces γ-Syn levels”. In addition, the “decrease of γ-Syn levels” value in the series with γ-Syn [7] (10 μM DMI) stood at 40%; in the series on γ-Syn [7] (50 μM DMI), 85%. In addition, in the series on WKY rats [9], the depressive state entry is “relieves their depressive state”.
Regarding `NNCCc1ccccc1` [phenelezine], in the series with WKY rats [6], the “mobility and climbing behaviors” value is “improvements in mobility and climbing behaviors”.
Take `CC(=O)O[C@H]1C(=O)[C@@]2(C)[C@H]([C@H](OC(=O)c3ccccc3)[C@]3(O)C[C@H](OC(=O)[C@H](O)[C@@H](NC(=O)c4ccccc4)c4ccccc4)C(C)=C1C3(C)C)[C@]1(OC(C)=O)CO[C@@H]1C[C@@H]2O` [taxol, Paclitaxel]: the values for the cell viability in the series on T47D cells (10 μM of either drug alone) and with T47D cells (setting [10]) were about 80% and 52%, respectively. Further, the “sensitivity of cells to taxol (in words)” value with T47D cells (T47D cells expressing γ-Syn) is recorded as “resistant to taxol treatment”. Further, the cell death in series [8] (each compound used alone) is on record as about 15%.

(Values after US20140243319A1, “TREATMENTS TARGETING GAMMA-SYNUCLEIN EXPRESSION LEVELS” (GEORGETOWN UNIVERSITY, priority 2011, published 2014).)
